Consider four molecules from patent US20110319461A1, “NOVEL SALTS, POLYMORPHS, AND SYNTHETIC PROCESSES REGARDING IMIDAZOLE DERIVATIVE” (Ore Pharmaceuticals Inc., priority 2010, published 2011).

Like-named read-outs stand apart in the source and are kept apart here.

Series [1] can be described thus: Storage stability of the drug substance. The format is physicochemical.
For series [2], the target named is ACE2 (Homo sapiens, UniProt Q9BYF1). Particulars: cited from earlier work.
A short description of series [3]: Water solubility. The format is physicochemical.
Series [4] has as its system upper gastrointestinal tract of the mouse. The series can be described thus: Anti-inflammatory effects in the upper gastrointestinal tract. The format is in vivo.
In series [5] the test system is acute dextran sodium sulfate-induced colitis in mice. The series can be described thus: Acute dextran sodium sulfate (DSS)-induced colitis. The format is in vivo. The following applies: for DSS-induced colon shortening: high dose Compound (I) and sulfasalazine. An excerpt: 2-[1-(S)-carboxy-2(S)-[3-(3,5-dichloro-benzyl)-3H-imidazol-4-yl]-ethylamino]-4-methyl-pentanoic acid, herein also referred to as Compound (I), is described in U.S. Pat. No. 6,632,830, U.S. Pat. No. 7,045,532, and WO 00/066104, each herein incorporated by reference in their entirety. Additionally, Compound (I) is discussed in “Substrate-Based Design of the First Class of Angiotensin-Converting Enzyme-Related Carboxypeptidase (ACE2) Inhibitors”, Dales, N. A., et al., J. Amer. Chem. Soc., 2002, 124, 11852-11853, incorporated by reference. As reported by Byrnes et al., Effects of the ACE2 inhibitor GL1001 on acute dextran sodium sulfate-induced colitis in mice, Inflamm. […] Doses of Compound (I) ameliorated DSS-induced disease activity, including rectal prolapsed and intestinal bleeding. […] Compound (I) provides therapeutic potential for inflammatory bowel disease.
Exposure to DSS prior to vehicle treatment (vehicle+DSS group) produced a time-dependent decrease in body weight that recovered by day 15. This body weight loss and recovery was similar in animals having received repeated doses of Compound (I) (300 mg/kg).
Disease activity index (DAI), namely rectal prolapsed, stool consistency, and fecal occult blood) was assessed every other day throughout the experiment. By experimental day 7, significant DSS-induced disease began to emerge, and trends toward recovery were observed by day 11. Statistical analyses were conducted on data obtained on the days of peak severity: day 7 (presence of fecal blood and diarrhea) and day 9 (rectal prolapse). All DAI data were analyzed by one-way ANOVA. Compared to non-DSS controls, DSS treatment markedly elevated scores for fecal occult blood, stoll consistency, and rectal prolapsed. These effects were attenuated by Compound (I) (300 mg/kg).
On experimental day 15, colon was obtained from each animal and length was measured. […] No effects of 30 or 100 mg/kg on DSS-induced colon shrinkage were observed (P>0.05 for all). Total histopathology score (inflammation+glandular epithelial loss+mucosal erosion) for each treatment group is represented with a maximum obtainable score of 15. One-way ANOVA indicated significant DSS_induced damage (vs. non-DSS control) in each region studied, with the most damage occurring in the distal colon.

The target in series [6] is ACE (Homo sapiens, UniProt P12821). The following applies: per Dales et al.; read-out: IC50 against ACE (selectivity); cited from earlier work.
Chain of ACE (P12821 1-732 isoform P12821-3): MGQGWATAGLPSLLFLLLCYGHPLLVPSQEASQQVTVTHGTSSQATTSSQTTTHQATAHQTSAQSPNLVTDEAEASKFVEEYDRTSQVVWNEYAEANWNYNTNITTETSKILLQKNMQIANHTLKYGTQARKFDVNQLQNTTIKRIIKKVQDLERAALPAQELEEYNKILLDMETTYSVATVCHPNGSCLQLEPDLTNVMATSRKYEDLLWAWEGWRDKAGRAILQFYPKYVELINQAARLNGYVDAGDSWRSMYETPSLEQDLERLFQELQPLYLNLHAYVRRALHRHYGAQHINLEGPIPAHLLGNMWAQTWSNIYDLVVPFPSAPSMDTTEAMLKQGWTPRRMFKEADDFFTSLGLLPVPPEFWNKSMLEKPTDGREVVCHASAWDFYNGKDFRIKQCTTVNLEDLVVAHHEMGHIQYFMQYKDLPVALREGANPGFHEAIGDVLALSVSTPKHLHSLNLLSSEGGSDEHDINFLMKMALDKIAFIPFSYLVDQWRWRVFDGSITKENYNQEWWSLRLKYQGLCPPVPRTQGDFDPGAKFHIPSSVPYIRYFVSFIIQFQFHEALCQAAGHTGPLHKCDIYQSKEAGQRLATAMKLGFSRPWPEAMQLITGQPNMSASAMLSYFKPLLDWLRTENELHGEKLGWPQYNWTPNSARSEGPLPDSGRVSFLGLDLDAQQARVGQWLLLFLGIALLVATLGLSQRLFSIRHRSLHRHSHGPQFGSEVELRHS
Series [7] concerns NSAID-induced gastric damage in rats. The series can be described thus: NSAID-induced gastric damage. The format is in vivo.
Series [8] concerns the target T1, CPDA (Bos taurus, UniProt P00730).
T1 sequence (P00730 111-419): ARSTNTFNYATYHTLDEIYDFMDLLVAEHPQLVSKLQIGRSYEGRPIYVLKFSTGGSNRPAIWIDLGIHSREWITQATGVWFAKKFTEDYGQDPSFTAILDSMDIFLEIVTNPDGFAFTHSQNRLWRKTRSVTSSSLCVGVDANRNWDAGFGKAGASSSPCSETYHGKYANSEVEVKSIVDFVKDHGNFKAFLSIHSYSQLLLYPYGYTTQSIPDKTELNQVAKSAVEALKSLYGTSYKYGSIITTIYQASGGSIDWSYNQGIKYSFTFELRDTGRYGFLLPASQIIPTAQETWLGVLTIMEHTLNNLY
The following applies: per Dales et al.; read-out: IC50 against CPDA (selectivity); cited from earlier work.

Series [9] has as its system acute dextran sodium sulfate-induced colitis in mice. The following applies: as reported by Byrnes et al., cited from earlier work.
[10] abbreviates: profound effect in the distal segment.

Chain of ACE2 (Q9BYF1 18-805): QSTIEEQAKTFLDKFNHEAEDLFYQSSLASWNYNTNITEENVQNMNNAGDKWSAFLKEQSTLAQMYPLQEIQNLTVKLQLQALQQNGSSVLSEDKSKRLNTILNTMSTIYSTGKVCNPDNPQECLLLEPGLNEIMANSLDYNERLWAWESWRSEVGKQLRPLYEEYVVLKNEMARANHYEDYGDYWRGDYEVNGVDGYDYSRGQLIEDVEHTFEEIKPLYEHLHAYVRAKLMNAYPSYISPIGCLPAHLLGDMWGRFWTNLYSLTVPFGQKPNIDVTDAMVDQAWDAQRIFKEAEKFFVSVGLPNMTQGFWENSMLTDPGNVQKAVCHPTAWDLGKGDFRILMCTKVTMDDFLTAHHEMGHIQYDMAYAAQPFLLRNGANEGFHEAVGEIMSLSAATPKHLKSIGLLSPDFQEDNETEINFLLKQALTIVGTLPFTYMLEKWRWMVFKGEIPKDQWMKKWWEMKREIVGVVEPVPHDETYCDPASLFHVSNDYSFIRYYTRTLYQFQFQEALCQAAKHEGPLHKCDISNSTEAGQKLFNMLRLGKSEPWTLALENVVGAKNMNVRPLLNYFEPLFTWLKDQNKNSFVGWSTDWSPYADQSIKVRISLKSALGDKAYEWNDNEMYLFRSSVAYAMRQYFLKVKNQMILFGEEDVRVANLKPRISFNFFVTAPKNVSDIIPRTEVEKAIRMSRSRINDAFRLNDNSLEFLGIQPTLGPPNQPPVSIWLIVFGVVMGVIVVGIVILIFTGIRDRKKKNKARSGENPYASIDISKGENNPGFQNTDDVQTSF

As for `CC(C)C[C@H](N[C@@H](Cc1cncn1Cc1cc(Cl)cc(Cl)c1)C(=O)[O-])C(=O)[O-].[Na+].[Na+]` [disodium salt anhydrate], the “stability” value in [1] (ambient temperatures) is “unstable, thermally sensitive, and subject to oxidation at ambient temperatures”.

Turning to `CC(C)C[C@@H](N[C@H](Cc1cncn1Cc1cc(Cl)cc(Cl)c1)C(=O)O)C(=O)O` [R,R isomer, 2-[1-(R)-carboxy-2(R)-[3-(3,5-dichloro-benzyl)-3H-imidazol-4-yl]-ethylamino]-4-methylpentanoic acid, reference compound], in series [2] (stereoisomers of Compound (I), per Dales et al., read-out: activity of the isomer (ACE2 inhibition)), the IC50 is over 50 µM.

As to `CC(C)C[C@H](N[C@@H](Cc1cncn1Cc1cc(Cl)cc(Cl)c1)C(=O)O)C(=O)O` [Compound (I), 2-[1-(S)-carboxy-2(S)-[3-(3,5-dichloro-benzyl)-3H-imidazol-4-yl]-ethylamino]-4-methylpentanoic acid], the “water solubility” value in [3] is given as “excellent”; in series [3] (listed as dicarboxylic acid) it was “limited”. In addition, the “ACE2 inhibitor potency and selectivity” value in [2] was “potent and selective”. Also, the “anti-inflammatory effects in the upper gastrointestinal tract” value in series [4] is reported as “exhibits anti-inflammatory effects”. For the same molecule, the body weight recovery result in [5] (30 mg/kg, by day 15) is listed as “compete recovery by day 15”. The “body weight loss and recovery compared with vehicle+DSS group” value in series [5] (300 mg/kg repeated b.i.d., days 5-15) is on record as “similar”. Besides, the “disease activity index (fecal occult blood, stool consistency, rectal prolapse) elevated by DSS” value in series [5] (300 mg/kg, day 7 and day 9) was “attenuated”. The “DSS-induced damage in the distal colon (total histopathology score)” value in series [5] (300 mg/kg, day 15) was “significantly attenuated”. Moreover, the body weight reduction entry in series [5] (30 and 100 mg/kg, maximum effects on day 9) is reported as “exhibited the largest weight reduction”. For the same molecule, the “effect on any DAI parameter” value in [5] (30 or 100 mg/kg, all P>0.05) is given as “no effects were observed”. For the same molecule, the DSS-induced colon shrinkage result in [5] (day 15, 30 or 100 mg/kg, P>0.05) is recorded as “No effects”. Further, the DSS-induced colon shortening entry in [5] (day 15) is listed as “reversed”. Besides, the IC50 in [6] and in series [8] was over 50 µM throughout. Further, in series [7], the “protection against NSAID-induced gastric damage” value is “protects against NSAID-induced gastric damage”. Further, the “DSS-induced disease activity, including rectal prolapse and intestinal bleeding” value in series [9] is listed as “ameliorated”. In [9] (setting [10]), the colon pathology entry is on record as “markedly attenuated”. Also, in series [9] (setting [10]), the myeloperoxidase activity entry is reported as “markedly attenuated”. Also, the “long-term stability / degradation” value in series [1] (ambient temperature and humidity, 7 years) is given as “no apparent degradation”.

For the molecule `O=C(O)c1cc(/N=N/c2ccc(S(=O)(=O)Nc3ccccn3)cc2)ccc1O` [sulfasalazine, reference compound], in [5] (150 mg/kg, compared with Compound (I) 300 mg/kg), the “rectal prolapse and bleeding (DAI)” value was “similarly efficacious”. Besides, in [5] (day 15), the DSS-induced colon shortening entry was “reversed”. In series [5] (sulfasalazine-treated animals, day 15), the “body weight recovery compared with vehicle+DSS and Compound (I) 300 mg/kg groups” value is reported as “did not recover to the same extent by day 15”.
